We go through 6 substances from US4876242A, “Human insulin-like growth factor analoges with reduced binding to serum carrier proteins and their production in yeast” (Merck & Co., Inc., priority 1987, dated 1989).

A word on the pIC50: it is the IC50 on a negative log10 scale, so that one unit is a factor of ten. The low end stands for a large IC50, the high end for a small IC50.

pIC50: −log10 of the molar value. Entries after “also recorded” stand apart in the source; their conditions may differ. Some results are limits rather than exact numbers.

Data set [1] deals with type I IGF receptor. The data set can be described thus: Inhibition of 125I-hIGF-I binding to human placental membranes (type I IGF receptor binding). The following applies: FIG. 6; for pIC50: human placental membranes, type I IGF receptor.
The subject of data set [2] is human serum carrier proteins. As to the kind of experiment: Inhibition of 125I-hIGF-I binding to acid stable human serum carrier proteins. The following applies: FIG. 7; for pIC50: acid stable human carrier proteins.
Data set [3] deals with 3T3 cells. As to the kind of experiment: Stimulation of DNA synthesis in 3T3 cells. Format: cell-based, mouse. The following applies: FIG. 9; for potency in stimulating DNA synthesis relative to normal/wild-type IGF-I: 3T3 cells; for potency in stimulating DNA synthesis relative to wild type IGF-I: mouse 3T3 cells. An excerpt:
IGF-I stimulates DNA synthesis in mouse 3T3 cells.

Data set [4] relates to native binding protein in rat serum. As to the kind of experiment: Binding of 125I-labelled peptide to components in normal rat serum (gel chromatography). Particulars: for binding to rat serum carrier proteins / native binding protein in rat serum (in words): normal rat serum, FIG. 8. The protocol:
^125 I-labelled analog IGF132 was monitored for the ability to bind components in normal rat serum. When ^125 I-IGF or ^125 I-IGF132 is chromatographed without prior incubation with serum, the radioactivity is eluted in a broad peak which migrates at the position expected for a 7.5 kD peptide (FIG. 8A). After incubation of ^125 I-IGF with rat serum, a radioactive peak appears which elutes at the position expected for a 150 kD protein, and the amount of radioactivity in the free ^125 I-αIGF peak decreases (FIG. 8B). The ^125 I-αIGF bound to the 150 kD species represents 36%±5% of the total ^125 I-IGF-I in the incubation. When the incubation is performed in the presence of 1 μg unlabelled IGF, only one radioactive peak is observed and this corresponds to unbound ^125 I-IGF (FIG. 8B (0)). Thus, under the conditions of this assay, the binding of ^125 I-IGF to the 150 kD species from rat serum is saturable.

The test system of data set [5] is serum carrier proteins. Particulars: cited from earlier work.
Data set [6] has as its system rat adipose tissue. The data set can be described thus: Incorporation of 14C-glucose into lipid in rat adipose tissue in vivo. The following applies: FIG. 10 part B.

As for FVNQHLCGSHLVEALYL-R1 [IGF132], in data set [1], the “affinity/potency at the type I IGF receptor compared to normal human IGF-I (in words)” value is “near equal affinity” and the negative logarithm of the IC50 (pIC50) was 7.92. Moreover, in data set [2], the “binding to human serum carrier proteins (in words)” value was “greatly reduced binding; also recorded: very weakly bound” and the negative-log IC50 (pIC50) is < 6.00. Also, in data set [3], the “potency in stimulating DNA synthesis relative to normal/wild-type IGF-I” value came out at 10 times and the “potency in stimulating DNA synthesis relative to wild type IGF-I” value is “about 10 fold”. Moreover, the “binding to rat serum carrier proteins / native binding protein in rat serum (in words)” value in data set [4] is “greatly reduced binding; also recorded: is not observed; also recorded: only free radioactive peptide is eluted”.
As to “GPETLCGAELVDALQF-R1 [hIGF-I, reference compound]”, the “share bound to serum carrier proteins in normal human blood” value in data set [5] (normal human blood) was “greater than 99%”. Besides, the results for the pIC50 in data set [1] and in data set [2] were 8.25 and 9.38, respectively. The “stimulation of lipid synthesis in adipose tissue in vivo (in words)” value in data set [6] is recorded as “Neither IGF-I nor IGF252 stimulate lipid synthesis; also recorded: neither IGF-I nor IGF252 stimulates the incorporation”. Also, the “binding to human serum carrier proteins (in words)” value in data set [2] is “tightly bound”. The “125I-peptide bound to the 150 kD species, share of the total in the incubation” value in data set [4] (after incubation with rat serum, FIG. 8B) was 36%±5%. Also, the “binding to rat serum carrier proteins / native binding protein in rat serum (in words)” value was “binds in a saturable fashion” in data set [4] and “saturable” in data set [4] (listed as IGF).
For the substance GPETLCGAELVDALYL-R1 [IGF122], the negative-log IC50 (pIC50) is 8.35 in data set [1] and 8.68 in data set [2].
On the same counts, the results for GPQALCGAELVDALQF-R1 [IGF130] are 8.28 and 8.74.
In data set [1], GPQALCGAELVDALYL-R1 [IGF252] gave a pIC50 of 8.30. In addition, the “stimulation of lipid synthesis in adipose tissue in vivo (in words)” value in data set [6] is given as “Neither IGF-I nor IGF252 stimulate lipid synthesis; also recorded: neither IGF-I nor IGF252 stimulates the incorporation”. In data set [2], the “binding to human serum carrier proteins (in words)” value is listed as “very weakly bound” and the pIC50 was 6.52. For the same substance, in data set [3], the “potency in stimulating DNA synthesis relative to normal/wild-type IGF-I” value is recorded as 10 times and the “potency in stimulating DNA synthesis relative to wild type IGF-I” value is reported as “about 10 fold”.
As to “insulin: insulin; stated not to bind to serum carrier proteins”, the “binding to serum carrier proteins (in words, background observation)” value in data set [5] is given as “does not bind to serum carrier proteins”.
